Test system: T98
Assay: Ames testing
Type: cell-based
Conditions: T98 with S9 activation
Description: A60.7 (370 mg) was dissolved in trifluoroacetic acid and stirred at 50° C. for 2h and 45 min. then at 60° C. for 2 h, then overnight at room temperature. The solvent was removed under reduced pressure and co-evaporated with diethyl ether (2×). Ether (˜20 mL) was added and the mixture sonicated for 1 min. The crude product was collected by filtration and rinsed with an additional portion of ether and dried under vacuum to yield 130 mg of a pale yellow solid. The crude product was washed with several portions of saturated aqueous sodium bicarbonate then water and dried under vacuum. The crude product was purified by automated reverse phase HPLC. The appropriate fractions were combined and azeotroped with heptane to produce 43 mg of a pale yellow solid. The solid was treated with a few milliliters of saturated aqueous sodium bicarbonate solution rinsed with water and dried under vacuum over phosphorus pentoxide and subsequently rinsed with several portions of diethyl ether and dried to yield 36 mg of the desired product. (Caution: This material was subjected to Ames testing and found to be positive in T98 with S9 activation. Suitable precautions should be taken in handling this material) 1H NMR 400 MHz d^6DMSO δ: 8.26 s, 1H, 8.14-8.07 m, 2H, 7.62-7.53, m, 3H, 6.90-6.80, br s, 2H, 4.02, s, 3H.

For `Cn1cnc2c(N)nc3nc(-c4ccccc4)sc3c21` [Example A60, 8-methyl-2-phenyl-8H-imidazo[4,5-d]thiazolo[4,5-b]pyridin-5-amine], the Ames testing was “positive”.
